Measured values reported in ChEMBL document CHEMBL1150465, “DNA topoisomerase II inhibition by substituted 1,2,3,4-tetrahydro--carboline derivatives” (Bioorg Med Chem Lett, 1994).
One block for each compound: values may come before it. Activity calls are given as the source filed them. The rule behind the calls is not given here.

Experiments:
[1] = target: T1, DNA topoisomerase II (Homo sapiens) (UniProt P11388+Q02880); experiment: Compound was tested for DNA Topoisomerase II mediated cleavage of DNA; inactive; assay type: protein assay
[2] = target: T1, DNA topoisomerase II (Homo sapiens); experiment: Compound was tested for DNA Topoisomerase II mediated cleavage of DNA; Each (+) indicates 1 to 2 -fold increase; assay type: protein assay
[3] = target: T1, DNA topoisomerase II (Homo sapiens); experiment: Compound was tested for DNA Topoisomerase II mediated cleavage of DNA; Each + indicates 2 to 4 fold increase; assay type: protein assay
[4] = tested on: Nucleic Acid; experiment: DNA intercalating activity was determined; Each (+) indicates 1 to 2 -fold increase; assay type: functional
[5] = tested on: Nucleic Acid; experiment: DNA intercalating activity was determined; Each + indicates a 2 to 4 fold increase; assay type: functional
[6] = target: T1, DNA topoisomerase II (Homo sapiens); experiment: Compound was tested for DNA Topoisomerase II mediated cleavage of DNA; No increase; assay type: protein assay

Compound: COc1cc([C@@H]2c3cc4c(cc3[C@@H](O[C@@H]3O[C@@H]5CO[C@@H](C)O[C@H]5[C@H](O)[C@H]3O)[C@H]3COC(=O)[C@H]23)OCO4)cc(OC)c1O
- Activity [3]: ++
- Activity [4]: (+)

Compound: COC(=O)N1CCc2c([nH]c3ccccc23)C1c1cc(OC)c(O)c(OC)c1 (stereo in doubt; 5)
- Activity [3]: denotes 2 to 4 fold increase
- Activity [4]: (+)

Compound: COC(=O)N1CCc2c([nH]c3ccccc23)C1c1cc(OC)c(O)c(OC)c1 (stereo in doubt; 4)
- Activity [3]: ++(+)
- Activity [5]: denotes 2 to 4 fold increase

Compound: COC(=O)N1CCc2c([nH]c3ccccc23)C1c1cc(OC)c(OC)c(OC)c1 (configuration not stated)
- Activity [1]: inactive

Compound: COC(=O)N1CCc2cc3c(cc2C1c1cc(OC)c(O)c(OC)c1)OCO3 (configuration not stated)
- Activity [6]: No increase

Compound: COc1cc(C2C3Nc4ccccc4C3CC3CCC(=O)N32)cc(OC)c1O (configuration not stated)
- Activity [3]: ++

The next lines start with the values.

- Activity [1]: inactive
Compound: COC(=O)N1CCc2c([nH]c3ccccc23)C1c1ccc(O)cc1 (configuration not stated)

- Activity [2]: +
Compound: COC(=O)N1CCc2c([nH]c3ccccc23)C1c1ccc(N)c(OC)c1 (configuration not stated)

- Activity [2]: +
Compound: COC(=O)N1CCc2c([nH]c3ccccc23)C1c1ccc(NS(C)(=O)=O)c(OC)c1 (configuration not stated)
